In ChEMBL document CHEMBL1201862, “PubChem BioAssay data set” (2004):
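Grown in 96-well plates, cells were treated for 48 hours with each compound at five concentrations. Insufficient inhibition: endpoint recorded as highest concentration tested. GI50: concentration for 50% inhibition of growth.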 Activity calls are given as the source filed them. Cut-off read from the data, not from the text of the source: active = GI50 up to about 1.1 µM and inactive = higher.

Tests used:
Assay in all cases: NCI anticancer screen, dose series, 48 h
MCF7 = system: MCF7
OVCAR-3 = system: OVCAR-3
SNB-75 = system: SNB-75
MOLT-4 = system: MOLT-4
SK-MEL-2 = system: SK-MEL-2
MDA-MB-231 = system: MDA-MB-231
SK-MEL-5 = system: SK-MEL-5
SK-OV-3 = system: SK-OV-3
COLO 205 = system: COLO 205
PC-3 = system: PC-3
SW-620 = system: SW-620
SF-295 = system: SF-295
NCI-H522 = system: NCI-H522
ACHN = system: ACHN
M14 = system: M14
EKVX = system: EKVX
SN12C = system: SN12C
HOP-62 = system: HOP-62
HCT-15 = system: HCT-15

| SMILES | GI50 (MCF7) | GI50 (OVCAR-3) | GI50 (SNB-75) | GI50 (MOLT-4) | GI50 (SK-MEL-2) | GI50 (MDA-MB-231) | GI50 (SK-MEL-5) | GI50 (SK-OV-3) | GI50 (COLO 205) | GI50 (PC-3) | GI50 (SW-620) | GI50 (SF-295) | GI50 (NCI-H522) | GI50 (ACHN) | GI50 (M14) | GI50 (EKVX) | GI50 (SN12C) | GI50 (HOP-62) | GI50 (HCT-15) [µM] |
| --- | --- | --- | --- | --- | --- | --- | --- | --- | --- | --- | --- | --- | --- | --- | --- | --- | --- | --- | --- |
| NC(=O)C(=CNC(N)=S)C(N)=O | > 100 µM (inactive) | > 100 µM (inactive) | > 100 µM (inactive) | > 100 µM (inactive) | > 100 µM (inactive) | > 100 µM (inactive) | > 100 µM (inactive) | > 100 µM (inactive) | > 100 µM (inactive) | > 100 µM (inactive) | > 100 µM (inactive) | > 100 µM (inactive) | > 100 µM (inactive) | > 100 µM (inactive) | > 100 µM (inactive) | > 100 µM (inactive) | > 100 µM (inactive) | > 100 µM (inactive) | > 100 |
| CN1CCc2cc3c(c4c2C1C(O)c1ccccc1-4)OCO3 (configuration not stated) | 4.31 µM (inactive) | 14.4 µM (inactive) | 12.6 µM (inactive) | 2.98 µM (inactive) | 9.59 µM (inactive) | 6.05 µM (inactive) | 7.98 µM (inactive) | 21.4 µM (inactive) | 4.95 µM (inactive) | 5.37 µM (inactive) | 7.53 µM (inactive) | 5.69 µM (inactive) | 2.93 µM (inactive) | 6.05 µM (inactive) | 5.12 µM (inactive) | 7.83 µM (inactive) | 3.03 µM (inactive) | 4.67 µM (inactive) | 3.59 |
| C/C(=C/CNc1ncnc2c1ncn2CCC(=O)O)CO | > 100 µM (inactive) | > 100 µM (inactive) | > 100 µM (inactive) | > 100 µM (inactive) |  | > 100 µM (inactive) | > 100 µM (inactive) | > 100 µM (inactive) | > 100 µM (inactive) | > 100 µM (inactive) | > 100 µM (inactive) | > 100 µM (inactive) | > 100 µM (inactive) | > 100 µM (inactive) | > 100 µM (inactive) | > 100 µM (inactive) | > 100 µM (inactive) | > 100 µM (inactive) |  |
| CC1=NN(C(=O)CC(=O)Nc2ccccc2C)C(=O)C1/N=N\c1ccc(S(=O)(=O)c2ccc(/N=N/C3C(=O)N(C(=O)CC(=O)Nc4ccccc4C)N=C3C)cc2)cc1 (configuration not stated) | > 100 µM (inactive) | > 100 µM (inactive) | > 100 µM (inactive) | > 100 µM (inactive) | > 100 µM (inactive) | > 100 µM (inactive) | 62.2 µM (inactive) | > 100 µM (inactive) | > 100 µM (inactive) | > 100 µM (inactive) | > 10 µM (inactive) | > 100 µM (inactive) | 46 µM (inactive) | > 100 µM (inactive) | > 100 µM (inactive) | > 100 µM (inactive) | > 100 µM (inactive) | > 100 µM (inactive) | > 100 |
| O=[N+]([O-])c1ccc(-n2nc3ccc4c(no[n+]4[O-])c3n2)cc1 | 82 µM (inactive) | > 100 µM (inactive) | 61.7 µM (inactive) | 74.6 µM (inactive) | > 100 µM (inactive) | > 100 µM (inactive) | 80.2 µM (inactive) | > 100 µM (inactive) | > 100 µM (inactive) | 5.55 µM (inactive) | > 100 µM (inactive) | > 100 µM (inactive) | > 100 µM (inactive) | 7.11 µM (inactive) | > 100 µM (inactive) | 24.8 µM (inactive) | > 100 µM (inactive) | 35.2 µM (inactive) | > 100 |
| Fc1ccc(Oc2nc3ccc(C(F)(F)F)cc3nc2-c2ccccc2)cc1 | 28.8 µM (inactive) | > 100 µM (inactive) | 27.9 µM (inactive) | 46 µM (inactive) | 60 µM (inactive) | > 100 µM (inactive) | 68.1 µM (inactive) | 81.5 µM (inactive) | > 100 µM (inactive) | > 100 µM (inactive) | > 10 µM (inactive) | 37.7 µM (inactive) | > 100 µM (inactive) | 44.8 µM (inactive) | 50.4 µM (inactive) | > 100 µM (inactive) | > 100 µM (inactive) | 24.4 µM (inactive) | > 100 |
| CSC1=N/C(=C\c2ccc(C)cc2)C(=O)N1 | 50.8 µM (inactive) | > 100 µM (inactive) | 47.4 µM (inactive) | 81.5 µM (inactive) | > 100 µM (inactive) | 92.7 µM (inactive) |  | > 100 µM (inactive) | > 100 µM (inactive) | 94.6 µM (inactive) | > 100 µM (inactive) | 65 µM (inactive) | 34.1 µM (inactive) | > 100 µM (inactive) | > 100 µM (inactive) | 52.8 µM (inactive) | > 100 µM (inactive) | 39.5 µM (inactive) | > 100 |
| O=C(/C=C1\Nc2ccccc2N\C1=C\C(=O)c1ccc(Cl)cc1)c1ccccc1 | 38.7 µM (inactive) |  | 21.3 µM (inactive) | 7.87 µM (inactive) | > 100 µM (inactive) | > 100 µM (inactive) | > 100 µM (inactive) | 70 µM (inactive) | > 100 µM (inactive) | > 100 µM (inactive) | > 100 µM (inactive) | 40.3 µM (inactive) | > 100 µM (inactive) | 31.6 µM (inactive) | 18.3 µM (inactive) | > 100 µM (inactive) | 47.2 µM (inactive) | 26.1 µM (inactive) | 52.7 |
| CN(/N=C/c1ccc(C(=O)O)cc1)C1=NCCCCN1 | > 100 µM (inactive) | > 100 µM (inactive) | 98.9 µM (inactive) | > 100 µM (inactive) |  | > 100 µM (inactive) | > 100 µM (inactive) | > 100 µM (inactive) | > 100 µM (inactive) | > 100 µM (inactive) |  | > 100 µM (inactive) | > 100 µM (inactive) | > 100 µM (inactive) | > 100 µM (inactive) | > 100 µM (inactive) | > 100 µM (inactive) | > 100 µM (inactive) | > 100 |
| CCOC(=O)c1sc2c(c1OC(=O)c1cccs1)c(=O)n(-c1ccccc1)c(=S)n2-c1ccccc1 | 14.9 µM (inactive) | 24.7 µM (inactive) | 83.6 µM (inactive) | 10.7 µM (inactive) |  | 14.9 µM (inactive) | 13.5 µM (inactive) | 18.2 µM (inactive) | 17.3 µM (inactive) | 12 µM (inactive) | 19.3 µM (inactive) | 53.2 µM (inactive) | 4.69 µM (inactive) | 15.8 µM (inactive) | 12.4 µM (inactive) | 36.9 µM (inactive) | 18.3 µM (inactive) | 21.1 µM (inactive) | 14 |
| C/C(=N\NC(=S)N1CCCC1)c1nc2cccnc2[nH]1 | 0.33 µM (active) | 0.35 µM (active) | 3.85 µM (inactive) | 0.171 µM (active) | 4.34 µM (inactive) | 16.5 µM (inactive) | 0.217 µM (active) | 0.442 µM (active) | 0.378 µM (active) | 0.355 µM (active) | 1.22 µM (inactive) | 0.254 µM (active) | 11.1 µM (inactive) | 0.0897 µM (active) | 0.357 µM (active) |  | 0.378 µM (active) | 0.356 µM (active) | 0.137 |
| Cc1occc1/C(S)=N\c1ccc(Cl)c(C(=O)OCC2CC2)c1 | 38.5 µM (inactive) | 52.2 µM (inactive) | 23.9 µM (inactive) | 14.9 µM (inactive) | 47.4 µM (inactive) | 37.8 µM (inactive) | 41.2 µM (inactive) | 35.6 µM (inactive) | 26.7 µM (inactive) | 30.4 µM (inactive) | 54.7 µM (inactive) | 29.4 µM (inactive) | 21.9 µM (inactive) | 34.5 µM (inactive) | 85.5 µM (inactive) | 35 µM (inactive) | 34.9 µM (inactive) |  | 31.5 |
| O=P(c1ccccc1)(c1ccccc1)c1ccc2c(c1)OCCOCCOCCOCCO2 | > 100 µM (inactive) |  | > 100 µM (inactive) | > 100 µM (inactive) |  | > 100 µM (inactive) | > 100 µM (inactive) | > 100 µM (inactive) | > 100 µM (inactive) | > 100 µM (inactive) | > 100 µM (inactive) | > 100 µM (inactive) | > 100 µM (inactive) | > 100 µM (inactive) | > 100 µM (inactive) | > 100 µM (inactive) | > 100 µM (inactive) | > 100 µM (inactive) | > 100 |
| O=c1c2nc3ccccc3c(=O)n2ncn1-c1ccccc1Cl | > 100 µM (inactive) | > 100 µM (inactive) | > 100 µM (inactive) |  | > 100 µM (inactive) | > 100 µM (inactive) | > 100 µM (inactive) | > 100 µM (inactive) | > 100 µM (inactive) | > 100 µM (inactive) | > 100 µM (inactive) | > 100 µM (inactive) | > 100 µM (inactive) | > 100 µM (inactive) | > 100 µM (inactive) | > 100 µM (inactive) | > 100 µM (inactive) | > 100 µM (inactive) | > 100 |
| COc1ccc(/C=N/c2c(O)ccc3ccccc23)cc1OC | > 100 µM (inactive) | 5.14 µM (inactive) | 47.2 µM (inactive) |  | > 100 µM (inactive) | 63.7 µM (inactive) | 56.2 µM (inactive) | > 100 µM (inactive) | 33 µM (inactive) | > 100 µM (inactive) | > 100 µM (inactive) | 63.7 µM (inactive) | 15.6 µM (inactive) | > 100 µM (inactive) | 74.5 µM (inactive) | > 100 µM (inactive) | > 100 µM (inactive) | 92 µM (inactive) | > 100 |
